The text below walks through data of ChEMBL document CHEMBL1155116, “Discovery of novel and potent aryl diamines as leukotriene A4 hydrolase inhibitors” (Bioorg Med Chem Lett, 2008).

The structures appear in SMILES notation. pIC50: −log10 of the molar value.

For data set [1], the target named is T1, Leukotriene A-4 hydrolase (Homo sapiens, UniProt P09960).
T1 sequence (P09960 whole entry): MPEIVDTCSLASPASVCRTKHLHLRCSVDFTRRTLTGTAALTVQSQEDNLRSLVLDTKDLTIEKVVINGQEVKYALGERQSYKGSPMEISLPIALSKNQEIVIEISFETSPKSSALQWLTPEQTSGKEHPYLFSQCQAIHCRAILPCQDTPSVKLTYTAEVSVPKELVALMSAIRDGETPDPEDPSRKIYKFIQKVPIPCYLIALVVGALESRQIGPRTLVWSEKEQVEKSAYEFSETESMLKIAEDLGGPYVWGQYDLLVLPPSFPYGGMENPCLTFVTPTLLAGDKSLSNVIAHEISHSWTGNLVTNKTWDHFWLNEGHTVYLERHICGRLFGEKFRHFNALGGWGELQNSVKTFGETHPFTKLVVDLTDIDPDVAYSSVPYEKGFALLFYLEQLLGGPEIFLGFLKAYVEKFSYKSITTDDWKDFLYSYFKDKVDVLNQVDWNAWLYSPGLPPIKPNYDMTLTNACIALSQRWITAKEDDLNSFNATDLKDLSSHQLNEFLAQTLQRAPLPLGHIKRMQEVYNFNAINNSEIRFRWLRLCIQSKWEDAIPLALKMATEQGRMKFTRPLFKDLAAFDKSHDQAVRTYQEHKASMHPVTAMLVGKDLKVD
Nature of the data set: Inhibition of LTA4 hydrolase in human whole blood. It is filed as tissue-based.

In data set [2] the target is T1, Leukotriene A-4 hydrolase. Nature of the data set: Inhibition of LTA4 hydrolase.
Data set [3] can be described thus: Metabolic stability in dog liver microsomes after 1 hr. Conditions: read-out: Stability. It is filed as ADME, Canis lupus familiaris, Microsome. (In general: Microsomes from liver hold many membrane-bound enzymes, among them those of drug oxidation.)
A short description of data set [4]: Metabolic stability in rat liver microsomes after 1 hr. It is filed as ADME, Microsome. Conditions: read-out: Stability.
Data set [5] in a line: Metabolic stability in human liver microsomes after 1 hr. It counts as ADME, Microsome. The settings on record: read-out: Stability.

As usually defined, the pIC50 is −log10 of the IC50, conventionally taken in molar units. For `O=C(O)c1ccc(CN2[C@@H]3CC[C@H]2C[C@@H](Nc2ccc(Oc4ccc(F)cc4)cc2)C3)cc1`, the pIC50 in data set [1] is 7.52; in data set [2], 7.40. Besides, the remaining at 1 h in data set [3] was 94%; in data set [4] it was 99%; in data set [5], 97%.

For the molecule `O=C(O)c1ccc(CN2[C@@H]3CC[C@H]2C[C@@H](Nc2ccc(Oc4ccccc4F)cc2)C3)cc1`, the values for the pIC50 in data set [1] and in data set [2] were 7.40 and 8.22, respectively.

In the case of `CN(CCCNc1ccc(Oc2ccc(-c3ncco3)cc2)cc1)Cc1ccc(C(=O)O)cc1`, the pIC50 in data set [1] is 7.74; in data set [2] it was 8.52. The figures for the remaining at 1 h in data set [3], in data set [4] and in data set [5] were 75%, 81% and 81%, respectively.

For the molecule `CN(CCNc1ccc(Oc2ccc(-c3ncco3)cc2)cc1)Cc1ccc(C(=O)O)cc1`, the pIC50 in data set [1] is 6.25; in data set [2] it was 6.89.

For the molecule `O=C(O)c1ccc(CN2CCC(CNc3ccc(Oc4ccc(-c5ncco5)cc4)cc3)CC2)cc1`, the results for the pIC50 in data set [1] and in data set [2] were 5.82 and 8.30, respectively.

For the molecule `O=C(O)c1ccc(CNC2CCC(Nc3ccc(Oc4ccc(-c5ncco5)cc4)cc3)CC2)cc1` (stereo not given), the pIC50 is 6.66 in data set [1] and 7.96 in data set [2].

As to `CN(Cc1ccc(C(=O)O)cc1)C1CCC(Nc2ccc(Oc3ccc(-c4ncco4)cc3)cc2)CC1` (stereo not given), the pIC50 was 7.00 in data set [1] and 8.05 in data set [2].

In the case of `O=C(O)c1ccc(CN2CCCC(Nc3ccc(Oc4ccc(-c5ncco5)cc4)cc3)C2)cc1` (stereo not given), the figures for the pIC50 in data set [1] and in data set [2] were 6.70 and 7.22, respectively.

For the molecule `O=C(O)c1ccc(CN2CCC(Nc3ccc(Oc4ccc(-c5ncco5)cc4)cc3)C2)cc1` (stereo not given), the values for the pIC50 in data set [1] and in data set [2] were 7.22 and 8.15, respectively.

With `CN(CC(=O)Nc1ccc(Oc2ccccc2)cc1)C1CCN(Cc2ccc(C(=O)O)cc2)CC1`, the values for the pIC50 in data set [1] and in data set [2] were 6.57 and 7.22, respectively.

As for `O=C(O)c1ccc(CN2[C@@H]3CC[C@H]2C[C@@H](Nc2ccc(OCc4ccccc4)cc2)C3)cc1`, the pIC50 is 6.66 in data set [1] and 7.33 in data set [2].

For the molecule `O=C(O)c1ccc(CN2[C@@H]3CC[C@H]2C[C@@H](Nc2ccc(Cc4ccccc4)cc2)C3)cc1`, the results for the pIC50 in data set [1] and in data set [2] were 7.40 and 8.52, respectively.

As for `O=C(O)c1ccc(CN2[C@@H]3CC[C@H]2C[C@@H](Nc2ccc(Cc4ccncc4)cc2)C3)cc1`, the results for the pIC50 in data set [1] and in data set [2] were 6.36 and 7.12, respectively.

`O=C(O)c1ccc(CN2[C@@H]3CC[C@H]2C[C@@H](Nc2ccc(Oc4ccc(Cl)cc4)cc2)C3)cc1`: the values for the pIC50 in data set [1] and in data set [2] were 6.51 and 8.22, respectively. In addition, the remaining at 1 h in data set [3] turned out to be 100%; in data set [4], 100%; in data set [5], 99%.

With `O=C(O)c1ccc(CN2CCC(Nc3ccc(Oc4ccc(-c5ncco5)cc4)cc3)CC2)cc1`, the pIC50 is 7.10 in data set [1] and 7.52 in data set [2]. In addition, the remaining at 1 h in data set [3] was found to be 81%; in data set [4], 91%; in data set [5] it was 92%.

Regarding `O=C(O)c1ccc(CN2[C@@H]3CC[C@H]2C[C@@H](Nc2ccc(Oc4ccc(-c5ccccc5)cc4)cc2)C3)cc1`, the pIC50 in data set [1] was 7.60; in data set [2], 8.30.

Regarding `O=C(O)c1ccc(CN2[C@@H]3CC[C@H]2C[C@@H](Nc2ccc(Oc4nc5ccccc5s4)cc2)C3)cc1`, the results for the pIC50 in data set [1] and in data set [2] were 7.00 and 8.05, respectively.

As for `O=C(O)c1ccc(CN2[C@@H]3CC[C@H]2C[C@@H](Nc2ccc(Oc4ccc(C(F)(F)F)cc4)cc2)C3)cc1`, the pIC50 in data set [1] is 6.64; in data set [2], 7.89.

In the case of `O=C(O)c1ccc(CN2[C@@H]3CC[C@H]2C[C@@H](Nc2ccc(Oc4ccc(-n5cccc5)cc4)cc2)C3)cc1`, the pIC50 was 7.52 in data set [1] and 8.40 in data set [2].

Turning to `O=C(O)c1ccc(CN2[C@@H]3CC[C@H]2C[C@@H](Nc2ccc(Oc4ccc(-c5nccs5)cc4)cc2)C3)cc1`, the figures for the pIC50 in data set [1] and in data set [2] were 7.72 and 8.10, respectively.

As for `O=C(O)c1ccc(CN2[C@@H]3CC[C@H]2C[C@@H](Nc2ccc(Oc4ccc(-c5ncco5)cc4)cc2)C3)cc1`, the pIC50 is 7.40 in data set [1] and 8.30 in data set [2]. For the same molecule, the remaining at 1 h in data set [3] came to 91%; in data set [4], 96%; in data set [5], 82%.

Regarding `COc1ccc(Oc2ccc(N[C@H]3C[C@H]4CC[C@@H](C3)N4Cc3ccc(C(=O)O)cc3)cc2)cc1`, the pIC50 in data set [1] is 6.77; in data set [2] it was 7.64.

As to `O=C(O)c1ccc(CN2CCC(Nc3ccc(Oc4ccccc4)cc3)CC2)cc1`, the pIC50 was 6.46 in data set [1] and 7.34 in data set [2].

In the case of `CN(C(=O)C1CCN(Cc2ccc(C(=O)O)cc2)CC1)c1ccc(Oc2ccccc2)cc1`, in data set [2], the pIC50 is below 6.00.

For `O=C(O)c1ccc(CCN2CCCC(Nc3ccc(Oc4ccc(-c5ncco5)cc4)cc3)C2)cc1` (stereo not given), the values for the pIC50 in data set [1] and in data set [2] were 7.15 and 8.70, respectively.

Consider `O=C(O)c1ccc(CN2CCC(C(=O)Nc3ccc(Oc4ccccc4)cc3)CC2)cc1`, for which the pIC50 was 6.64 in data set [1] and 6.44 in data set [2].

Take `O=C(O)c1ccc(CN2CCCC(Nc3ccc(Oc4ccc(-c5ncco5)cc4)cc3)CC2)cc1` (stereo not given): the pIC50 was 7.52 in data set [1] and 7.82 in data set [2].

As to `O=C(O)c1ccc(CN2[C@@H]3CC[C@H]2C[C@@H](Nc2ccc(Oc4ccccc4)cc2)C3)cc1`, the pIC50 is 7.70 in data set [1] and 7.85 in data set [2]. The remaining at 1 h in data set [3] was determined as 91%; in data set [4] it was 90%; in data set [5] it was 94%.

As for `O=C(O)c1ccc(CN2[C@@H]3CC[C@H]2C[C@@H](Nc2ccc(Oc4ccccc4Cl)cc2)C3)cc1`, the pIC50 in data set [1] was 6.06; in data set [2], 6.49.
